Consider 33 molecules from patent US9096518B2, “Substituted hydroxamic acids and uses thereof” (Millennium Pharmaceuticals, Inc., priority 2009, dated 2015).

This test deals with T1, purified human HDAC6 (Homo sapiens, UniProt Q9UBN7).
T1 construct: purchased BPS Bioscience 5006
T1 sequence (Q9UBN7 1-1215): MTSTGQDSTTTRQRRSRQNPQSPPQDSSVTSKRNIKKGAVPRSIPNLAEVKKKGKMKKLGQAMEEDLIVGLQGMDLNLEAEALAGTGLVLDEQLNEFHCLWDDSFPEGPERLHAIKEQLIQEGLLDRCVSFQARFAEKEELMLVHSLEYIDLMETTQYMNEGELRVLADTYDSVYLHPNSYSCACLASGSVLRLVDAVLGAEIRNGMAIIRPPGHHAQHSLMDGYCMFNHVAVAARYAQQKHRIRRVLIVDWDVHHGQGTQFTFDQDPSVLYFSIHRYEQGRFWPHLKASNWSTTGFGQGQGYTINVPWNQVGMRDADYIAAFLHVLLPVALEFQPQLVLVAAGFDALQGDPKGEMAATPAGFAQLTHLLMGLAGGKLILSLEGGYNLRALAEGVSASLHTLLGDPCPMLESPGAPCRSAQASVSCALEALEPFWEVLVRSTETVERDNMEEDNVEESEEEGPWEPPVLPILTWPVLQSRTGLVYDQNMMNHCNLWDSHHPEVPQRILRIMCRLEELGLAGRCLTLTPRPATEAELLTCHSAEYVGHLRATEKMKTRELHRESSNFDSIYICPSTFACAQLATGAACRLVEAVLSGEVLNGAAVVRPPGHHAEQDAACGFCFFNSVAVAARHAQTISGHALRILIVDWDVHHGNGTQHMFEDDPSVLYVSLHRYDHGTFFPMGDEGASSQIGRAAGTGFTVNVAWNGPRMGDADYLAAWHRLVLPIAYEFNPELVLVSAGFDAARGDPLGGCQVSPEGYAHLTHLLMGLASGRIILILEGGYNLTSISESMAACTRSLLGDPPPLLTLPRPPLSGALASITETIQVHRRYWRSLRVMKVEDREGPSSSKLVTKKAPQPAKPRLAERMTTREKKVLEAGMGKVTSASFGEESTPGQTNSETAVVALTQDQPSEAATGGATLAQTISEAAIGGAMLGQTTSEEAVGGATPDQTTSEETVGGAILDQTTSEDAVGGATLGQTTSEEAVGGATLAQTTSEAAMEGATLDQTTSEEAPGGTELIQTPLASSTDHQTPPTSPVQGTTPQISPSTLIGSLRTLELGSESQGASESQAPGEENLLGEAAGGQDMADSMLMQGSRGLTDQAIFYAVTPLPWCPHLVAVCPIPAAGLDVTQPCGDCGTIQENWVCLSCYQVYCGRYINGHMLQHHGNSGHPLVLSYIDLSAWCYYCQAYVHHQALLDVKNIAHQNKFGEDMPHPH
The experiment in a line: HDAC6 Enzyme Assay. The class given is biochemical. The essentials:
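Purified human HDAC6 incubated 1 h at 30 °C with Ac-Arg-Gly-Lys(Ac)-AMC peptide and compound; reaction stopped with trichostatin A, then trypsin releases AMC, read by fluorescence (Ex 340/Em 460 nm). IC50 from concentration-response curves relative to DMSO controls.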
In the case of `COc1cc(Cl)ccc1C(=O)N1Cc2ccc(C(=O)NO)cc2C1` [Compound 79, 2-(4-chloro-2-methoxybenzoyl)-N-hydroxyisoindoline-5-carboxamide], the IC50 is under 50 nM. `CC(C)(C(=O)N1Cc2ccc(C(=O)NO)cc2C1)c1ccc(Cl)cc1` [Compound 80, 2-[2-(4-chlorophenyl)-2-methylpropanoyl]-N-hydroxyisoindoline-5-carboxamide] registered an IC50 of under 50 nM. Regarding `CC(C)(C)C(=O)N1Cc2ccc(C(=O)NO)cc2C1` [Compound 81, 2-(2,2-dimethylpropanoyl)-N-hydroxyisoindoline-5-carboxamide], the IC50 lay within 50 to 100 nM. On to `CC(C)(C)C(=O)N1CCCc2cc(C(=O)NO)ccc2C1` [Compound 82, 2-(2,2-dimethylpropanoyl)-N-hydroxy-2,3,4,5-tetrahydro-1H-2-benzazepine-7-carboxamide], for which the IC50 lay in the range of 100 to 500 nM. For `Cn1cccc1C(=O)N1CCCc2cc(C(=O)NO)ccc2C1` [Compound 83, N-hydroxy-2-[(1-methyl-1H-pyrrol-2-yl)carbonyl]-2,3,4,5-tetrahydro-1H-2-benzazepine-7-carboxamide] the value was 100 to 500 nM. `O=C(NO)c1ccc2c(c1)CCCN(C(=O)c1ccc(C(F)(F)F)cc1)C2` [Compound 84, N-hydroxy-2-[4-(trifluoromethyl)benzoyl]-2,3,4,5-tetrahydro-1H-2-benzazepine-7-carboxamide] had an IC50 of over 500 nM. The molecule `CC(C)(C)C(=O)N1CCc2ccc(C(=O)NO)cc2CC1` [Compound 85, 3-(2,2-dimethylpropanoyl)-N-hydroxy-2,3,4,5-tetrahydro-1H-3-benzazepine-7-carboxamide] registered an IC50 of 100 to 500 nM.

Molecule `Cn1cccc1C(=O)N1CCc2ccc(C(=O)NO)cc2CC1` [Compound 86, N-hydroxy-3-[(1-methyl-1H-pyrrol-2-yl)carbonyl]-2,3,4,5-tetrahydro-1H-3-benzazepine-7-carboxamide] showed an IC50 of 100 to 500 nM. The result for `O=C(NO)c1ccc2c(c1)CCN(C(=O)c1ccc(C(F)(F)F)cc1)CC2` [Compound 87, N-hydroxy-3-[4-(trifluoromethyl)benzoyl]-2,3,4,5-tetrahydro-1H-3-benzazepine-7-carboxamide] reads 100 to 500 nM. The molecule `CC(C)(C(=O)N1CCc2ccc(C(=O)NO)cc2CC1)c1ccc(Cl)cc1` [Compound 88, 3-[2-(4-chlorophenyl)-2-methylpropanoyl]-N-hydroxy-2,3,4,5-tetrahydro-1H-3-benzazepine-7-carboxamide] showed an IC50 of under 50 nM. For `O=C(NO)c1ccc2c(c1)CCN(C(=O)Nc1ccc3c(c1)CCO3)C2` [Compound 89, N^2-(2,3-dihydro-1-benzofuran-5-yl)-N^6-hydroxy-3,4-dihydroisoquinoline-2,6(1H)-dicarboxamide] the value was under 50 nM; for `O=C(NO)c1ccc2c(c1)CCN(C(=O)Nc1ccc3c(c1)OCO3)C2` [Compound 90, N^2-1,3-benzodioxol-5-yl-N^6-hydroxy-3,4-dihydroisoquinoline-2,6(1H)-dicarboxamide], under 50 nM.

`O=C(NO)c1ccc2c(c1)CCN(C(=O)NCCc1ccccc1)C2` [Compound 91, N^6-hydroxy-N^2-(2-phenylethyl)-3,4-dihydroisoquinoline-2,6(1H)-dicarboxamide] registered an IC50 of under 50 nM.

Consider `O=C(NO)c1ccc2c(c1)CCN(C(=O)Nc1ccc(OC(F)(F)F)cc1)C2` [Compound 92, N^6-hydroxy-N^2-[4-(trifluoromethoxy)phenyl]-3,4-dihydroisoquinoline-2,6(1H)-dicarboxamide], for which the IC50 was under 50 nM. Take `CCC(C)NC(=O)N1CCc2cc(C(=O)NO)ccc2C1` (stereo not drawn) [Compound 93, N^2-(sec-butyl)-N^6-hydroxy-3,4-dihydroisoquinoline-2,6(1H)-dicarboxamide]: the IC50 is under 50 nM. In turn, `CCc1cccc(C)c1NC(=O)N1CCc2cc(C(=O)NO)ccc2C1` [Compound 94, N^2-(2-ethyl-6-methylphenyl)-N^6-hydroxy-3,4-dihydroisoquinoline-2,6(1H)-dicarboxamide] had an IC50 of under 50 nM. For `O=C(NO)c1ccc2c(c1)CCN(C(=O)Nc1ccc(-c3ccccc3)s1)C2` [Compound 95, N^6-hydroxy-N^2-(5-phenyl-2-thienyl)-3,4-dihydroisoquinoline-2,6(1H)-dicarboxamide] the value was under 50 nM; for `CC(C)(C)c1ccccc1NC(=O)N1CCc2cc(C(=O)NO)ccc2C1` [Compound 96, N^2-(2-tert-butylphenyl)-N^6-hydroxy-3,4-dihydroisoquinoline-2,6(1H)-dicarboxamide], under 50 nM. `CCCNC(=O)N1CCc2cc(C(=O)NO)ccc2C1` [Compound 97, N^6-hydroxy-N^2-propyl-3,4-dihydroisoquinoline-2,6(1H)-dicarboxamide] registered an IC50 of 50 to 100 nM. `O=C(NO)c1ccc2c(c1)CCN(C(=O)Nc1cccc(C(F)(F)F)c1)C2` [Compound 98, N^6-hydroxy-N^2-[3-(trifluoromethyl)phenyl]-3,4-dihydroisoquinoline-2,6(1H)-dicarboxamide] displayed an IC50 of under 50 nM. For the molecule `O=C(NO)c1ccc2c(c1)CCN(C(=O)Nc1ccc(Cc3ccccc3)cc1)C2` [Compound 99, N^2-(4-benzylphenyl)-N^6-hydroxy-3,4-dihydroisoquinoline-2,6(1H)-dicarboxamide], the IC50 was under 50 nM. `O=C(NO)c1ccc2c(c1)CCN(C(=O)Nc1cccc3ccccc13)C2` [Compound 100, N^6-hydroxy-N^2-1-naphthyl-3,4-dihydroisoquinoline-2,6(1H)-dicarboxamide] gave an IC50 of under 50 nM. The result for `O=C(NO)c1ccc2c(c1)CCN(C(=O)NC1CCCCC1)C2` [Compound 101, N^2-cyclohexyl-N^6-hydroxy-3,4-dihydroisoquinoline-2,6(1H)-dicarboxamide] reads under 50 nM; that for `O=C(NO)c1ccc2c(c1)CCN(C(=O)Nc1ccccc1-c1ccccc1)C2` [Compound 102, N^2-biphenyl-2-yl-N^6-hydroxy-3,4-dihydroisoquinoline-2,6(1H)-dicarboxamide], under 50 nM. In turn, `CC(NC(=O)N1CCc2cc(C(=O)NO)ccc2C1)c1cccc2ccccc12` (stereo not drawn) [Compound 103, N^6-hydroxy-N^2-[1-(1-naphthyl)ethyl]-3,4-dihydroisoquinoline-2,6(1H)-dicarboxamide] came in with an IC50 of under 50 nM.

Consider `CC(C)c1ccc(NC(=O)N2CCc3cc(C(=O)NO)ccc3C2)cc1` [Compound 104, N^6-hydroxy-N^2-(4-isopropylphenyl)-3,4-dihydroisoquinoline-2,6(1H)-dicarboxamide], for which the IC50 was under 50 nM.

`Cc1ccc(CNC(=O)N2CCc3cc(C(=O)NO)ccc3C2)cc1` [Compound 105, N^6-hydroxy-N^2-(4-methylbenzyl)-3,4-dihydroisoquinoline-2,6(1H)-dicarboxamide] gave an IC50 of under 50 nM.

Turning to `O=C(NO)c1ccc2c(c1)CCN(C(=O)CC1CC1)C2` [Compound 106, 2-(cyclopropylacetyl)-N-hydroxy-1,2,3,4-tetrahydroisoquinoline-6-carboxamide], the IC50 lay within 100 to 500 nM. For `O=C(NO)c1ccc2c(c1)CCN(Cc1cccc(OC(F)(F)F)c1)C2` [Compound 109, N-hydroxy-2-[3-(trifluoromethoxy)benzyl]-1,2,3,4-tetrahydroisoquinoline-6-carboxamide], the IC50 lay within 100 to 500 nM. Turning to `CC(c1ccccc1)N1CCc2cc(C(=O)NO)ccc2C1` (stereo not drawn) [Compound 110, N-hydroxy-2-(1-phenylethyl)-1,2,3,4-tetrahydroisoquinoline-6-carboxamide], the IC50 was 100 to 500 nM. Molecule `O=C(NO)c1ccc2c(c1)CCN(CCOc1ccc(Cl)cc1)C2` [Compound 111, 2-[2-(4-chlorophenoxy)ethyl]-N-hydroxy-1,2,3,4-tetrahydroisoquinoline-6-carboxamide] registered an IC50 of 100 to 500 nM.

In the case of `O=C(NO)c1ccc2c(c1)CCN(S(=O)(=O)c1csc(-c3ccon3)c1)C2` [Compound 112, N-hydroxy-2-[(5-isoxazol-3-yl-3-thienyl)sulfonyl]-1,2,3,4-tetrahydroisoquinoline-6-carboxamide], the IC50 lay within 100 to 500 nM. `Cc1cccc(C)c1NC(=O)CN1CCc2cc(C(=O)NO)ccc2C1` [Compound 116, 2-{2-[(2,6-dimethylphenyl)amino]-2-oxoethyl}-N-hydroxy-1,2,3,4-tetrahydroisoquinoline-6-carboxamide] registered an IC50 of 50 to 100 nM.

What is called IC50 is the concentration that inhibits the measured activity by half.
